These results are taken from patent US20070004660A1, “Synergistic Modulation of Flt3 Kinase Using Alkylquinolines and Alkylquinazolines” (priority 2005, published 2007).

This test has as its target T1, wild-type FLT3 receptor (Homo sapiens, UniProt P36888).
T1 construct: host or cells: Baf3 (murine B cell lymphoma line), stably transfected
T1 sequence (P36888 27-993): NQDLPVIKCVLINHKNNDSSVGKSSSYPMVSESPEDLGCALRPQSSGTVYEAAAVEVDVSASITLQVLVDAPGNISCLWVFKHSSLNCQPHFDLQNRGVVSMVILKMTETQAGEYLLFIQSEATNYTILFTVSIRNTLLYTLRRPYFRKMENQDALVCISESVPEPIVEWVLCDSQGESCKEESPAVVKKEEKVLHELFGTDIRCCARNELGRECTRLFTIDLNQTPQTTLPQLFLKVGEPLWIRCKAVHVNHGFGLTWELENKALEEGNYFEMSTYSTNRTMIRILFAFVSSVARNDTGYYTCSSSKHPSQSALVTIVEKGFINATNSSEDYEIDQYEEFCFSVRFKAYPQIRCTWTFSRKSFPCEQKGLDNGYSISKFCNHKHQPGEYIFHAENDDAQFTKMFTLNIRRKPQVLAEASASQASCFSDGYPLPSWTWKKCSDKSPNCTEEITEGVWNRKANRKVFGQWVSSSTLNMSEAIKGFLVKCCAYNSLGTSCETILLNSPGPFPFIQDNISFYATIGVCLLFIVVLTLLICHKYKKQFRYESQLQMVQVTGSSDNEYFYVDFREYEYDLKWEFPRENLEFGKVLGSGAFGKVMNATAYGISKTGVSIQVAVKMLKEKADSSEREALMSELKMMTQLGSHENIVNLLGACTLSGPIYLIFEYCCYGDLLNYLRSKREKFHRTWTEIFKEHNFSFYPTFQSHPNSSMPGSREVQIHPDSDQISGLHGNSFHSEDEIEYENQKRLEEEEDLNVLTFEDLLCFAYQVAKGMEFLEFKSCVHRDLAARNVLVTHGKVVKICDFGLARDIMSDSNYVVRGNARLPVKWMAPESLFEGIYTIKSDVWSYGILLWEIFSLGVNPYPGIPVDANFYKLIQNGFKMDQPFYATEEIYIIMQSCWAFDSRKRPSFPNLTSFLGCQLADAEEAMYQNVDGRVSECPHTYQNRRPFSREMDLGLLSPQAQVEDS
The test can be described thus: Cell-based FLT3 receptor ELISA (FLT ligand-induced phosphorylation in Baf3 FLT3 cells). As to conditions: 100 ng/mL Flt ligand, uncertainty ±20%. The method in brief:
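Receptor phosphotyrosine measured by sandwich ELISA (anti-FLT3 capture, HRP anti-pTyr, luminescence) in FLT3-transfected murine Baf3 cells given 1 h compound pretreatment and 10 min 100 ng/mL FLT ligand after overnight low-serum starvation; triplicates, IC50 from nonlinear regression.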

For `O=C(Nc1ccc(N2CCCC2)cc1)N1CCC(c2ncnc3cc(OCCCN4CCC[C@H]4CO)ccc23)CC1` [Example 161, (S)-4-{7-[3-(2-Hydroxymethyl-pyrrolidin-1-yl)-propoxy]-quinazolin-4-yl}-piperidine-1-carboxylic acid (4-pyrrolidin-1-yl-phenyl)-amide], 59 nM corresponded to half-maximal inhibition (IC50).

Consider `CC(=O)N1CCC[C@H]1COc1ccc2c(C3CCN(C(=O)Nc4ccc(N5CCCC5)cc4)CC3)ncnc2c1` [Example 162, (S)-4-[7-(1-Acetyl-pyrrolidin-2-ylmethoxy)-quinazolin-4-yl]-piperidine-1-carboxylic acid (4-pyrrolidin-1-yl-phenyl)-amide], for which the midpoint of inhibition, the IC50, lay at 10 nM.

Take `CC(=O)N1CCC(COc2ccc3c(C4CCN(C(=O)Nc5ccc(N6CCCC6)cc5)CC4)ncnc3c2)CC1` [Example 163, 4-[7-(1-Acetyl-piperidin-4-ylmethoxy)-quinazolin-4-yl]-piperidine-1-carboxylic acid (4-pyrrolidin-1-yl-phenyl)-amide]: the IC50 (in general, the point on the concentration scale where inhibition reaches its midpoint) came out at 118 nM.

`CS(=O)(=O)N1CCN(CCCOc2ccc3c(C4CCN(C(=O)Nc5ccc(N6CCCC6)cc5)CC4)ncnc3c2)CC1` [Example 164, 4-{7-[3-(4-Methanesulfonyl-piperazin-1-yl)-propoxy]-quinazolin-4-yl}-piperidine-1-carboxylic acid (4-pyrrolidin-1-yl-phenyl)-amide] displayed an IC50 of 11 nM.

`CN(C)C(=O)N1CCN(CCCOc2ccc3c(C4CCN(C(=O)Nc5ccc(N6CCCC6)cc5)CC4)ncnc3c2)CC1` [Example 165, 4-(3-{4-[1-(4-Pyrrolidin-1-yl-phenylcarbamoyl)-piperidin-4-yl]-quinazolin-7-yloxy}-propyl)-piperazine-1-carboxylic acid dimethylamide] yielded an IC50 of 4 nM.

In turn, `CC(=O)N1CCN(c2ccc3c(C4CCN(C(=O)Nc5ccc(N6CCCC6)cc5)CC4)ncnc3c2)CC1` [Example 166, 4-[7-(4-Acetyl-piperazin-1-yl)-quinazolin-4-yl]-piperidine-1-carboxylic acid (4-pyrrolidin-1-yl-phenyl)-amide] showed an IC50 of 16 nM.

`CS(=O)(=O)N1CCN(c2ccc3c(C4CCN(C(=O)Nc5ccc(N6CCCC6)cc5)CC4)ncnc3c2)CC1` [Example 167, 4-[7-(4-Methanesulfonyl-piperazin-1-yl)-quinazolin-4-yl]-piperidine-1-carboxylic acid (4-pyrrolidin-1-yl-phenyl)-amide] had a half-inhibitory concentration (IC50) of 3 nM.

`O=C(Nc1ccc(N2CCCC2)cc1)N1CCC(c2ncnc3cc(OCCO)ccc23)CC1` [Example 169, 4-[7-(2-Hydroxy-ethoxy)-quinazolin-4-yl]-piperidine-1-carboxylic acid (4-pyrrolidin-1-yl-phenyl)-amide] gave an IC50 of 2 nM.

As for `CC(=O)N1CC(Oc2ccc3c(C4CCN(C(=O)Nc5ccc(N6CCCC6)cc5)CC4)ncnc3c2)C1` [Example 170, 4-[7-(1-Acetyl-azetidin-3-yloxy)-quinazolin-4-yl]-piperidine-1-carboxylic acid (4-pyrrolidin-1-yl-phenyl)-amide], the concentration for half-maximal inhibition (IC50) was 4 nM.

As to `CS(=O)(=O)N1CC(Oc2ccc3c(C4CCN(C(=O)Nc5ccc(N6CCCC6)cc5)CC4)ncnc3c2)C1` [Example 171, 4-[7-(1-Methanesulfonyl-azetidin-3-yloxy)-quinazolin-4-yl]-piperidine-1-carboxylic acid (4-pyrrolidin-1-yl-phenyl)-amide], half-maximal inhibition (IC50) required 10 nM.

In turn, `O=C(COc1ccc2c(C3CCN(C(=O)Nc4ccc(N5CCCC5)cc4)CC3)ncnc2c1)N1CCOCC1` [Example 172, 4-[7-(2-Morpholin-4-yl-2-oxo-ethoxy)-quinazolin-4-yl]-piperidine-1-carboxylic acid (4-pyrrolidin-1-yl-phenyl)-amide] gave a 50% inhibitory concentration (IC50) of 149 nM. This IC50 is about 15-fold higher than that of the compound before.

Compound `O=C(Nc1ccc(N2CCCC2)cc1)N1CCC(c2ncnc3cc(N4CCC4)ccc23)CC1` [Example 173, 4-(7-Azetidin-1-yl-quinazolin-4-yl)-piperidine-1-carboxylic acid (4-pyrrolidin-1-yl-phenyl)-amide] showed a half-maximal inhibitory concentration (IC50) of 2 nM.

Compound `O=C(Nc1ccc(N2CCCC2)cc1)N1CCC(c2ncnc3cc(Oc4cccnc4)ccc23)CC1` [Example 174, 4-[7-(Pyridin-3-yloxy)-quinazolin-4-yl]-piperidine-1-carboxylic acid (4-pyrrolidin-1-yl-phenyl)-amide] yielded a 50% inhibitory concentration (IC50) of 130 nM.

`O=C(Nc1ccc(N2CCCC2)cc1)N1CCC(c2ncnc3cc(NCCO)ccc23)CC1` [Example 175, 4-[7-(2-Hydroxy-ethylamino)-quinazolin-4-yl]-piperidine-1-carboxylic acid (4-pyrrolidin-1-yl-phenyl)-amide] gave an IC50 of 6 nM.

For `O=C(Nc1ccc(N2CCCC2)cc1)N1CCC(c2ncnc3cc(N4CCOC4=O)ccc23)CC1` [Example 176, 4-[7-(2-Oxo-oxazolidin-3-yl)-quinazolin-4-yl]-piperidine-1-carboxylic acid (4-pyrrolidin-1-yl-phenyl)-amide], the 50% inhibitory concentration (IC50) amounted to 7 nM.
